According to the NIST ThermoML archive (doi:10.1016/j.fluid.2013.12.024):
Numbers after ± are expanded uncertainties.

How the values were obtained:
[1] = Molar enthalpy of transition or fusion; conditions: Crystal; DSC
[2] = Crystal; DTA

O=c1c(-c2ccc(O)cc2)coc2cc(O)ccc12 [daidzein]
Molar enthalpy of transition or fusion [1]: 8.38 ± 0.234 kcal/mol | Normal melting temperature [2]: 315.67 ± 0.5 °C
